Structures are written as SMILES.

The test has as its system Helicoverpa armigera. The test can be described thus: gossypol tolerance test, larvae on artificial diet supplemented with gossypol. To be noted: third-instar larvae. The class given is in vivo. On the procedure: Cotton bollworm (Helicoverpa armigera) eggs were purchased from Benzon research laboratory. See the world wide web at benzonresearch.com/insectlist.htm. They were hatched at 25° C. and all the larvae were fed with the artificial diet (Southland Products Incorporated on the world wide web at tecinfo.com/˜southland/. All dishes were kept at 25° C. on a 14-h-day/10-h-night cycle. For the gossypol tolerance experiments, third instars larvae were transferred to the artificial diet supplemented with gossypol (0-4 mg) for 4 d and the increase in weight was recorded.
Gossypol and related sesquiterpene biosynthesized in cotton are toxic to many organisms. However, most Helicoverpa insects resist gossypol because the P450 monooxygenases in the midgut of these insects permit them to tolerate the gossypol. Therefore, in order to suppress P450 gene, two step insect bioassay was conducted. In the first step, third-instar larvae of Helicoverpa armigera were fed on P450: RNAi expressed leaves for four days. Then, all these larvae were transferred to the following diet or leaves: artificial diet with 3 mg/g gossypol or without gossypol; cotton leaves with glands/glandless and wild-type tobacco leaves. Addition of gossypol in the artificial diet or in leaves affects the growth and development of the larvae (FIG. 3). […]

`Cc1cc2c(C(C)C)c(O)c(O)c(C=O)c2c(O)c1-c1c(C)cc2c(C(C)C)c(O)c(O)c(C=O)c2c1O` [gossypol]: under “higher concentrations (3-4 mg/g) of gossypol diet”, the “net weight increase of larvae” value was in the range of 15.1 to 55.4 mg. Besides, the “weight increases of larvae” value (low concentration gossypol diet (1-2 mg/g)) is 163 to 190 mg.
